According to patent publication US20170319572A1, “COMBINATION DRUG TREATMENT FOR HEPATITIS C INFECTION” (JANSSEN PHARMACEUTICALS, INC., priority 2015, published 2017):
Entries after “also recorded” stand apart in the source; their conditions may differ.

Tests used:
[1] = Phase 2a open-label combination study, pharmacokinetics and safety; assay type: in vivo, human; conditions: for change of exposure on reducing SMV dosing from 100 mg to 75 mg QD: in vivo
Procedure: A randomized, Phase 2a, open-label study was carried out to evaluate the safety, pharmacokinetics and efficacy of the combination of Compound (III), Odalasvir and Simeprevir in Genotype 1 treatment-naïve subjects with chronic hepatitis C. Other treatment-naïve subjects included Genotype 2, 3, 4, 5 and 6. The aim of the study was to determine the efficacy, pharmacokinetics (PK), and safety of Compound (III)+Odalasvir±SMV in HCV-infected subjects. […] Efficacy, PK and safety evaluations were conducted during and through 24 weeks post dosing. Up to 15 cohorts were enrolled; data was generated from cohorts that have completed dosing.

[2] = Drug-drug interaction study in humans (Phase-1, open-label, two-group, fixed-sequence, PK); conditions: for increase of exposure caused by Odalasvir: co-administration of Odalasvir; for increase of exposure caused by SMV: co-administration of SMV
Procedure: A drug-drug interaction study (DDI) study is a study designed to investigate whether a drug alters the pharmacokinetics of another drug or drugs or their metabolites.
Compound (III)—Subjects received 800 mg of Compound (III) once daily from Days 1-3, Days 11-13, and Days 21-23. PK blood samples for determination of Compound (III) and metabolite concentrations were collected in reference to the Day 3, Day 13, and Day 23 doses.
Simeprevir—Subjects received 150 mg of Simeprevir (SMV) once daily from Days 4-23. PK blood samples for determination of SMV concentrations were collected in reference to the Day 10, Day 13, Day 20, and Day 23 doses.
Odalasvir—Subjects received a loading dose of 150 mg on Day 14, and 50 mg of Odalasvir once daily from Days 15-23. PK blood samples for determination of Odalasvir concentrations were collected in reference to the Day 20 and Day 23 doses.
Compound (III)—Subjects received 800 mg of Compound (III) once daily from Days 1-3, Days 11-13 and Days 21-23. PK blood samples for determination of Compound (III) and metabolite concentrations were collected in reference to the Day 3, Day 13, and Day 23 doses.
Simeprevir—Subjects receive 150 mg of SMV once daily from Days 4-23. PK blood samples for determination of SMV concentrations were collected in reference to the Day 20 and Day 23 doses.
Odalasvir—Subjects receive a loading dose of 150 mg on Day 4, and 50 mg of Odalasvir once daily from Days 5-23. PK blood samples for determination of Odalasvir concentrations were collected in reference to the Day 10, Day 13, Day 20, and Day 23 doses.
This drug-drug interaction study was intended to assess the safety and tolerability of the described drug combinations at pre-defined time points throughout the study. Study completion/follow-up visit(s) were performed 7 and 28 days after completion of the last study assessment.
A primary objective was to evaluate the effect of multiple oral doses of Odalasvir (alone), Simeprevir (alone), and Odalasvir and Simeprevir on the multiple oral dose PK of Compound (III) (and certain metabolites thereof, such as the major metabolites in systemic circulation) in healthy volunteers. Other objectives were to evaluate the safety and tolerability of multiple oral doses of Compound (III) when administered alone and in combination with single and multiple oral doses of Odalasvir and/or Simeprevir in healthy volunteers; to determine the potential effect of Compound of Compound (III) and/or Odalasvir on the steady-state PK of Simeprevir in healthy volunteers; to determine the potential effect of Compound of Compound (III) and/or Simeprevir on the steady state PK of Odalasvir in healthy volunteers.
Various other PK parameters were estimated including: Clast, t1/2, Tmax, Tlast, CL/F, Vz/F, and λz.
The following daily doses were employed:
Odalasvir: 150 mg loading dose; 50 mg for the remainder of the study period.

[3] = SMV co-administered with Rosuvastatin (substrate of OATPs & BCRP); cited from earlier work
[4] = SMV co-administered with Digoxin (a pgp-substrate); cited from earlier work
CYP (any CYP) = experiment: CYP inhibition; conditions: on any CYP
NTCP = conditions: printed: other OATPs NTCP; read-out: NTCP inhibition IC50; cited from earlier work
Pgp = Pgp (Homo sapiens, UniProt P08183); conditions: cited from earlier work
Sequence of Pgp (P08183 whole entry): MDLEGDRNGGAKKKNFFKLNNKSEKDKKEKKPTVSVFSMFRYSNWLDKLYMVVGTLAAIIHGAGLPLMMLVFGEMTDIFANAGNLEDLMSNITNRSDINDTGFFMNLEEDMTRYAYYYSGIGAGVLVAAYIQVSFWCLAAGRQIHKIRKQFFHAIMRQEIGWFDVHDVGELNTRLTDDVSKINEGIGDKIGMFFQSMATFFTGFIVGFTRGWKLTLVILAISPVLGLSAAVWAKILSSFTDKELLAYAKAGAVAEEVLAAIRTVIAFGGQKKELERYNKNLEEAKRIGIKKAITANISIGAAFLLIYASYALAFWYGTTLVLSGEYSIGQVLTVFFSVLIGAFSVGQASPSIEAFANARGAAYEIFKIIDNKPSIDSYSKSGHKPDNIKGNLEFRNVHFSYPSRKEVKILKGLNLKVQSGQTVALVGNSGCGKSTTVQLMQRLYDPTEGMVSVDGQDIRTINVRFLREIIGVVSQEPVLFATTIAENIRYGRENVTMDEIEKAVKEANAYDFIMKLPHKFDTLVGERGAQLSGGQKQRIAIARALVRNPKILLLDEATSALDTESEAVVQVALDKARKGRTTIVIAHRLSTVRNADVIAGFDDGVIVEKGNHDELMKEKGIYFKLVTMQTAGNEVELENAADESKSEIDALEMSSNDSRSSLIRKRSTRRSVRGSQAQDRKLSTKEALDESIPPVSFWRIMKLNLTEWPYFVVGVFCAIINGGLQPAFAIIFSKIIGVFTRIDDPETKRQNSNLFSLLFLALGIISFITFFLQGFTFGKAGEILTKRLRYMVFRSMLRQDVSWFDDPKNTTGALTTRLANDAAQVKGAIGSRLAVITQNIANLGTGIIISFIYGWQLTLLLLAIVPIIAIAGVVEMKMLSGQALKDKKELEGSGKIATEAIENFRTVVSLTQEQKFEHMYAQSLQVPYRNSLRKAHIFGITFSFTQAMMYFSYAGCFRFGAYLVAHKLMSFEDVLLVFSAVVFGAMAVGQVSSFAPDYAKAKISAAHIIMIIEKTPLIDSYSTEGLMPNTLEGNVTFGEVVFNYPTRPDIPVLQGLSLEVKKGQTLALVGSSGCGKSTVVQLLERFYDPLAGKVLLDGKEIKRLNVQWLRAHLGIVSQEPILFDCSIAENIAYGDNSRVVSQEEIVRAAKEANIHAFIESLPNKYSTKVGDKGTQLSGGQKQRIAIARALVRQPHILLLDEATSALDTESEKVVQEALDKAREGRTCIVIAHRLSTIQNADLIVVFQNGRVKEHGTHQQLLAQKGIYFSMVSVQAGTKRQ

Compound	change of exposure on increasing Compound (III) dose from 400 to 800 mg ([1]; HCV patients)	increase of exposure caused by Odalasvir ([2]; DDI study)	increase of exposure caused by SMV ([2]; DDI study)	observed exposure in Cohort 1 / group (i) ([1]; Compound (III) 400 mg, ODV 50 mg QD, SMV 100 mg QD)	change of exposure on reducing SMV dosing from 100 mg to 75 mg QD [1]	change of exposure on reducing SMV dosing from 100 mg to 75 mg QD ([1]; listed as Simeprevir)	increase in Rosuvastatin exposure [3]	increase in exposure of Digoxin [4]	CYP inhibition potential (CYP (any CYP))	increase of exposure, effect of the three Compounds ([2]; DDI study, Compound (III) + SMV + Odalasvir together)	effect of Compound (III) on exposure/bioavailability ([2]; DDI study, co-administration of Compound (III))	increase of exposure in the combination ([2]; human in vivo study (Example 1), three drugs combined)	increase of bioavailability by ODV ([2]; human subjects)	IC50 (NTCP)	in vitro inhibition of Pgp (Pgp)
C[C@]1(O)[C@H](n2ccc(=O)[nH]c2=O)O[C@](F)(CO)[C@H]1O [Compound A-1]	less than proportionally	1.5 ×	no apparent effect	–	–	–	–	–	–	–	–	–	–	–	–
C[C@H](NP(=O)(O)OC[C@@]1(F)O[C@@H](n2ccc(=O)[nH]c2=O)[C@](C)(O)[C@@H]1O)C(=O)O [Compound A-3]	–	2.6 ×	1.6 ×	–	–	–	–	–	–	–	–	–	–	–	–
COc1ccc2c(O[C@@H]3C[C@H]4C(=O)N[C@]5(C(=O)NS(=O)(=O)C6CC6)C[C@H]5/C=C\CCCCN(C)C(=O)[C@@H]4C3)cc(-c3nc(C(C)C)cs3)nc2c1C [SMV, Simeprevir, reference compound]	–	1.6 ×	–	higher than anticipated	decreased SMV exposure less than proportionally	decreased Simeprevir exposure less than proportionally	3 fold	35%	limited	1.6 ×	no apparent effect; also recorded: does not alter the bioavailability	1.6 times	1.6 fold	2200 nM	strong/moderate in vitro inhibition
